Structures are written as SMILES. Entries after “also recorded” stand apart in the source; their conditions may differ.

One assay concerns the target T1, mTRPA1 (Mus musculus, UniProt Q8BLA8).
T1 construct: expressed in transfected cells; host or cells: HEK293T (ATCC CRL-11268)
Briefly: Fluo-3 calcium imaging in TRPA1 transfected HEK293T cell line. Particulars: 100 μM probenecid. It is filed as cell-based. The protocol:
(§1) HEK293T cell line (ATCC CRL-1 1268) was transiently transfected with plasmid DNA containing polynucleotide encoding […] (SEQ. ID. NO: 1), rTRPV2 (SEQ. ID. NO: 2), mTRPV3 (SEQ. ID. NO: 3), rTRPV4 (SEQ. ID. NO: 4), mTRPM8 (SEQ. ID. NO: 5) or mTRPA1 (SEQ. ID. NO: 6).
(§2) Particularly, the HEK293T cell line was transiently transfected with individual TRP channel plasmid (pcDNA3.1 containing polynucleotide encoding rTRPV1, rTRPV2, mTRPV3, rTRPV4, mTRPM8 or mTRPA1), and 600 ng/well of pCDNA3 (Invitrogen Corp., USA; containing green fluorescent protein (GFP) cDNA) using Fugene6 (Roche Diagnostics, USA) according to manufacturer's instruction. The transformed cells were cultured in DMEM/F12 containing 10% FBS and 1% penicillin/streptomycin in a CO2 incubator for 24 hours. The cells were replated onto poly-L-lysine-coated glass coverslips, followed by further culture for 10-24 hours.
(§3) Particularly, the transfected cell line of Example <3-1> and Example <3-2> was loaded with Fluo-3AM (5 μM; Sigma Aldrich, USA) in the bath solution (140 mM NaCl, 5 mM KCl, 2 mM CaCl2, 1 mM MgCl2, 10 mM HEPES; adjusted to pH 7.4 with NaOH) containing 0.02% pluronic acid (Invitrogen, USA) at 37° C. for 1 hour. […]

For a further assay, the target named is T2, rTRPV1 (Rattus norvegicus, UniProt O35433).
T2 construct: expressed in transfected cells; host or cells: HEK293T (ATCC CRL-11268)
T2 sequence (O35433 whole entry): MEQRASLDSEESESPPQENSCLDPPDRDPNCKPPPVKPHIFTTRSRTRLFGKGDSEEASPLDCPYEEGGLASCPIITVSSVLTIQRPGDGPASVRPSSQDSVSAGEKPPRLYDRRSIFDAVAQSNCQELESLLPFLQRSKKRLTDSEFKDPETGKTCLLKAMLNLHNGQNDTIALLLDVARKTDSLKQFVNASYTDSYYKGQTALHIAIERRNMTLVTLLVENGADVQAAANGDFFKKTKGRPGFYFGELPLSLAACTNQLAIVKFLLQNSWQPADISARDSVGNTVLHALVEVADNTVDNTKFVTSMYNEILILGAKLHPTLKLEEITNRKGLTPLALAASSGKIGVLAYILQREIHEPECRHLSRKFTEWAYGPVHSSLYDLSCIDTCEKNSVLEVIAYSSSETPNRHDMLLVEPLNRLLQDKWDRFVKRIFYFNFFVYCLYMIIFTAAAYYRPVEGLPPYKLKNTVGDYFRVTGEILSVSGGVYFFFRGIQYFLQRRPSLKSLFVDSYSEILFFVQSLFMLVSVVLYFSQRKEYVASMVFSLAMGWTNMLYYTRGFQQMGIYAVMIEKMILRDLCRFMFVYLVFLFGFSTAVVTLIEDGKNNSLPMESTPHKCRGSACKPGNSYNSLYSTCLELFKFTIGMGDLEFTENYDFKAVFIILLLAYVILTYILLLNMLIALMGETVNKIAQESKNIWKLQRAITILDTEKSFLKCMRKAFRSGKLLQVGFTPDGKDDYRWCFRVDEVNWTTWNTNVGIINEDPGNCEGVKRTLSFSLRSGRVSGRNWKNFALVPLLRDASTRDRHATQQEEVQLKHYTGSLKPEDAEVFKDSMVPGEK
Briefly: Fluo-3 calcium imaging in TRPV1 transfected HEK293T cell line. It is filed as cell-based. Particulars: 100 μM probenecid. The protocol:
as §1, §2, §3

The next assay addresses T3, mTRPV3 (Mus musculus, UniProt Q8K424, A9V).
T3 construct: expressed in transfected cells; host or cells: HEK293T (ATCC CRL-11268)
T3 sequence (Q8K424 1-791 A9V): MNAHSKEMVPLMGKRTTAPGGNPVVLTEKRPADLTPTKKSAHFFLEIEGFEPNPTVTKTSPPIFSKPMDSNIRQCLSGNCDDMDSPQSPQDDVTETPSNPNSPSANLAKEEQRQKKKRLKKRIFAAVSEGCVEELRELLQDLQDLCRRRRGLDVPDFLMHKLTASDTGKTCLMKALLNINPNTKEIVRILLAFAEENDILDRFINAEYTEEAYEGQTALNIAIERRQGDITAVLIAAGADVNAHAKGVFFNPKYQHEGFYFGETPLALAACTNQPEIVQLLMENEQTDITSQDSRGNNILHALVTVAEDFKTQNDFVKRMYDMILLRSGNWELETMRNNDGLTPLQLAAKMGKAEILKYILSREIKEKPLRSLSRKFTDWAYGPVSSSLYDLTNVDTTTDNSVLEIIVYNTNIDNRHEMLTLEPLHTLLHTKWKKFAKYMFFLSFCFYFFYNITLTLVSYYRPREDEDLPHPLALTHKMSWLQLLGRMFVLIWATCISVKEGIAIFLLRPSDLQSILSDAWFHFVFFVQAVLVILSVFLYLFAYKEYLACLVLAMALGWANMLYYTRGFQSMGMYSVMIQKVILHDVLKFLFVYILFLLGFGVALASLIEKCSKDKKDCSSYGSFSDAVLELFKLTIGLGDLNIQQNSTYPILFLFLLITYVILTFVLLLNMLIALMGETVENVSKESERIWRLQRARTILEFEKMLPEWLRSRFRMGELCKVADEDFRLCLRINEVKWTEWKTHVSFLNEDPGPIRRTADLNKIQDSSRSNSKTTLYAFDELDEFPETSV
Briefly: Fluo-3 calcium imaging in TRPV3 transfected HEK293T cell line. It is filed as cell-based. As to conditions: 100 μM probenecid. The protocol: as §1, §2, §3

Assay [1] in a line: Hindpaw licking/flicking behaviors. It is filed as in vivo, mice. As to conditions: 10 minutes. The protocol:
Inflammatory sensitization by probenecid was investigated. Particularly, 50 μl of 1% carrageenan (Sigma Aldrich, USA) was injected to the right hind paws of mice 3 hours before the probenecid injection or 50 μl of CFA (complete Freund's adjuvant; Sigma Aldrich, USA) was injected 24 hours before the probenecid injection. Before the experiment, the mice were adapted for one hour to the experimental environment. […] of vehicle (saline containing 3% DMSO and 0.5% Tween 80) alone or […] of vehicle containing probenecid (20 mM) was injected to the right hind paws of the mice.
The time spent for the hindpaw licking/flicking behaviors in mice were measured according to the method of Bandell M, et al. (Neuron 41:849-857, 2004) and Moqrich A, et al. (Science 307:1468-1472, 2005), for 10 minutes. Statistical data were analyzed by two-tailed, unpaired Student's-t-test and the results were presented by mean ±S.E.M. (***p<0.001, **p<0.01, *p<0.05 and ND, p>0.05).

T1 sequence (Q8BLA8 whole entry): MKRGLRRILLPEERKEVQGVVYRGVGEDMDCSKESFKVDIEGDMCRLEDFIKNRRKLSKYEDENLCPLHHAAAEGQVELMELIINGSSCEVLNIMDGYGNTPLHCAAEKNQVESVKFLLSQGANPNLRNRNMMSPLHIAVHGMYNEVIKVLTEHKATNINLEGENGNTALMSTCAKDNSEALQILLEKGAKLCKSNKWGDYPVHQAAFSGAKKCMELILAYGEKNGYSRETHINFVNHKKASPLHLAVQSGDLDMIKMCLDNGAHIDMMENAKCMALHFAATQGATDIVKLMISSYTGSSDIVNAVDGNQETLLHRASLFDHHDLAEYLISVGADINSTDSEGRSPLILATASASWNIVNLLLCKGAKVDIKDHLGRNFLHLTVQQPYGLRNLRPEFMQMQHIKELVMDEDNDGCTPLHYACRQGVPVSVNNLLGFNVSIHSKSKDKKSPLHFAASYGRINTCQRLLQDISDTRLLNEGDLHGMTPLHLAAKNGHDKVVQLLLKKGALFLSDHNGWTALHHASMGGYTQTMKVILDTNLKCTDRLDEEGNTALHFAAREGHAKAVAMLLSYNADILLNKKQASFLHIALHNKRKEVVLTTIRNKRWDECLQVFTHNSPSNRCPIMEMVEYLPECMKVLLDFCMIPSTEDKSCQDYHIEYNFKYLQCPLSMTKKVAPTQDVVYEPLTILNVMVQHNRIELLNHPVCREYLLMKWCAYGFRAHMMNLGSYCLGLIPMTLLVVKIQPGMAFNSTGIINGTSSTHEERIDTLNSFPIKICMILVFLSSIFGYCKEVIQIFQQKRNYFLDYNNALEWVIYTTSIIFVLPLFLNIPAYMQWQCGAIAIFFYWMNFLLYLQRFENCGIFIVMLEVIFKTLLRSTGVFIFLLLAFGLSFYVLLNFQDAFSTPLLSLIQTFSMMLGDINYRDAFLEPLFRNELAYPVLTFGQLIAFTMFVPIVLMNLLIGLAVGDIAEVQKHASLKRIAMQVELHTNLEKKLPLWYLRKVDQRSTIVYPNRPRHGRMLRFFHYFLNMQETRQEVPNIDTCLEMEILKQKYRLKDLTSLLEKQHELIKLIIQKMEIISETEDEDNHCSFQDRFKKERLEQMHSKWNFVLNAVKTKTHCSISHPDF

Regarding `CCCN(CCC)S(=O)(=O)c1ccc(C(=O)O)cc1` [probenecid], the “TRPA1 activation (calcium imaging)” value on mTRPA1 is on record as “only TRPV2 was activated; also recorded: not confirmed”. Besides, the “TRPV1 activation (calcium imaging)” value on rTRPV1 is reported as “only TRPV2 was activated; also recorded: not confirmed”. Moreover, the “TRPV3 activation (calcium imaging)” value on mTRPV3 is recorded as “only TRPV2 was activated; also recorded: not confirmed”. Further, the “hindpaw licking/flicking behavior in normal mice” value in assay [1] (20 mM probenecid injected to the right hind paw) is recorded as “no significant changes in behavior”. Further, in assay [1] (1% carrageenan 3 hours before, 20 mM probenecid to the right hind paw), the “hindpaw licking/flicking behavior in mice with inflammation induced by carrageenan” value is given as “significantly extended behavior time; also recorded: behavial changes were observed”. Further, in assay [1] (CFA 24 hours before, 20 mM probenecid to the right hind paw), the “hindpaw licking/flicking behavior in mice with inflammation induced by CFA” value is “significantly extended behavior time; also recorded: behavial changes were observed”.
